US12319659B2, “Selective ligand for dopamine D3 receptor, preparation method therefor, and pharmaceutical application thereof” (Shenzhen Linglan Bio-Pharmaceutical Technology Co., Ltd, priority 2017, dated 2025)

What was measured:
dopamine D2 receptor [1] = target: T1, dopamine D2 receptor (Homo sapiens, UniProt P14416); experiment: Competitive inhibition test using radioligands ([3H]-sulpiride), D2 receptor; format: binding
T1 construct: expressed in transfected cells; host or cells: Human embryonic kidney-293 cells
T1 sequence (P14416 whole entry): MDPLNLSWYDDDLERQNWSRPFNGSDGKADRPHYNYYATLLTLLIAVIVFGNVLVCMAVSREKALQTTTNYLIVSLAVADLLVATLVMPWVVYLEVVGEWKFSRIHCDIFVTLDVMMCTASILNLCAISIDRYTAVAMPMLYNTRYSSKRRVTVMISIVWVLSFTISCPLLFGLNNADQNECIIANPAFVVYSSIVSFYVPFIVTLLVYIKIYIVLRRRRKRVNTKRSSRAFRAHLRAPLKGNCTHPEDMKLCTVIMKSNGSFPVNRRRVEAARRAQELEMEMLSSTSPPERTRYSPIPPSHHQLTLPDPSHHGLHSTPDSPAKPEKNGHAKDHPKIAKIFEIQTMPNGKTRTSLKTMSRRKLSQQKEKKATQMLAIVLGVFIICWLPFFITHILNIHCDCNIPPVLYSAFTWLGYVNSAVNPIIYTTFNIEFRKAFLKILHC
Method: (§3) Human embryonic kidney-293 cells were cultured in fresh MEM medium containing 10% fetal bovine serum, 100 units of penicillin, and 100 μg/mL streptomycin at 37° C. under 5% CO2. Cells were transfected with DNA plasmids of dopamine D2 and D3 receptors respectively by using polyethylenimine. After transfection for 4 hours, medium was replaced with fresh MEM medium containing fetal bovine serum and the cells were further cultured for 24 hours. The cells were seeded into 24-well plates and cultured for 14-16 hours or overnight. After the medium was discarded, the cells were rinsed with pre-cooled serum-free MEM. Radioligand ([^3H]-sulpiride) and various concentrations of compounds were added into the adherent cells, and incubated in a bath at 4° C. for 150 minutes. The cells were rinsed three times with pre-cooled MEM containing 10 mM HEPES to remove unbound ligands. After the medium was completely removed, the cells were lysed with 1% sodium lauryl sulfate. The remaining radioligands were detected with a liquid scintillation counter to calculate the relative amount of bound compounds.

[2] = system: 6-OHDA-induced Parkinson's disease rats; experiment: Rotarod assay in 6-hydroxydopamine-induced Parkinson's disease rats; format: in vivo, Sprague Dawley (SD) rats; details: intraperitoneal for 3 days, 6-hydroxydopamine rats
Method: Experimental Sprague Dawley (SD) rats were randomly divided into an experimental group and a control group. After repeated behavior detection confirmed that there was no rotational behavior, the experiment was performed. Experimental group: rats were anesthetized with a mixture of xylazine (15 mg/kg, i.p.) and ketamine (100 mg/kg, i.p.), and then desipramine hydrochloride (25 mg/kg, s.c.) were used to protect noradrenergic neurons. 6 μg of 6-hydroxydopamine was dissolved in 2.3 μL of 0.9% sterile saline, and injected into the cerebral substantia nigra (antero-posterior −5.4 mm, […] from the bregma which was used as a zero coordinate) at a rate of 0.5 μL/min by using cerebral stereotaxic surgery. Rats in the control group were injected with the same dose of 0.9% sterile saline. After injection, the syringe needle was left in rats for 5 minutes before the needle was slowly withdrawn. After the rats awakened, they were placed in animal facilities for behavioral model evaluation to ensure that 6-hydroxydopamine induced the formation of a model with movement disorders and emotional/motivational disorders. Because hunger is prone to occur as a result of dopamine damage of the midbrain substantia nigra, 20% of rats were given high-calorie food for 1-2 weeks. After 19 days, the D3 receptor-selective ligand was continuously injected intraperitoneally for 3 days. Rats were allowed to accommodate the rotarod on days 19-20, and a rotarod assay was performed on days 21-22.

[3] = Solubility assay in water; format: physicochemical
Excerpt: (§1) Solubility Assay of the D3 Receptor-Selective Ligand

dopamine D3 receptor [4] = target: T2, dopamine D3 receptor (Homo sapiens, UniProt P35462)
T2 sequence (P35462 whole entry): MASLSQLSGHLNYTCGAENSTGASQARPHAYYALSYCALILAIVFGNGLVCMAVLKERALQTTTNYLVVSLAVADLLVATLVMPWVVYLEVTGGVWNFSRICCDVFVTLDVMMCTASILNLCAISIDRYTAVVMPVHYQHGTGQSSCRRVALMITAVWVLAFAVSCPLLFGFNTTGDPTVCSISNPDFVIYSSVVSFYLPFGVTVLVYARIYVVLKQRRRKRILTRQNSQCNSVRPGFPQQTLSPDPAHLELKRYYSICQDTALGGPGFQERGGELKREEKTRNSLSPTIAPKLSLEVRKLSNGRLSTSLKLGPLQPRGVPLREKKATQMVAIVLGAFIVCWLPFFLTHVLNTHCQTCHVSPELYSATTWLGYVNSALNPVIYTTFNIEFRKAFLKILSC
Method: as §3

dopamine D3 receptor [5] = target: T2, dopamine D3 receptor; experiment: Intrinsic functional experiment, CRE luciferase reporter gene assay, D3 receptor; format: cell-based; set-up: expressed in transfected cells; host or cells: Human embryonic kidney-293 cells; details: 2 μM forskolin, HEK-293 cells, quinpirole positive control
Method: (§2) Human embryonic kidney-293 cells were transfected with complementary DNA of human dopamine D2, D3 and D4 receptors and a luciferase reporter gene transcriptionally controlled by CRE. The cells transfected with an empty vector were used as a negative control. The cells were seeded into 24-well plates, and 2 μM of forskolin and various concentrations of compounds were added. Cells added with quinpirole were used as a positive control group. After four hours' incubation, cells were lysed with cell lysis buffer for 20 minutes and then centrifuged. The supernatant was reacted with 25 μL of luciferase substrate and the expression level of luciferase was detected by using a dual luciferase reporter vector kit.

[6] = target: T3, human dopamine D4 receptor (Homo sapiens, UniProt P21917); experiment: Intrinsic functional experiment, CRE luciferase reporter gene assay, D4 receptor; format: cell-based; details: 2 μM forskolin, HEK-293 cells, quinpirole positive control
T3 construct: expressed in transfected cells; host or cells: Human embryonic kidney-293 cells
T3 sequence (P21917 1-419): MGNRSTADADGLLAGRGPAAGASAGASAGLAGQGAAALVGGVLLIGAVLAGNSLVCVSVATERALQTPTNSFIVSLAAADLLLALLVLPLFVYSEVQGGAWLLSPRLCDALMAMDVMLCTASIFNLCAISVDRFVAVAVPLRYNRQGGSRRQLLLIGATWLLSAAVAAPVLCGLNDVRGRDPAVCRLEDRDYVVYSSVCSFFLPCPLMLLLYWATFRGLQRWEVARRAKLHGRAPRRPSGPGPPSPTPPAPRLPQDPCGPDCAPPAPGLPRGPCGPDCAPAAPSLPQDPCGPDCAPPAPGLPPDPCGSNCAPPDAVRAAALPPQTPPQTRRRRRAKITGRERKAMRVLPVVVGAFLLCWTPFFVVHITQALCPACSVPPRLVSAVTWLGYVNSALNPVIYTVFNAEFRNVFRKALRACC
Method: as §2

dopamine D2 receptor [7] = target: T1, dopamine D2 receptor; experiment: Intrinsic functional experiment, CRE luciferase reporter gene assay, D2 receptor; format: cell-based; details: 2 μM forskolin, HEK-293 cells, quinpirole positive control
Method: as §2

dopamine D3 receptor [8] = target: T2, dopamine D3 receptor; experiment: cell-based
Method: as §3

[9] = Solubility assay in anhydrous ethanol; format: physicochemical; details: organic solvent or mixture
Excerpt: as §1

Ki (dopamine D2 receptor [1]; [3H]-sulpiride competition, HEK-293 cells, read-out: KiD2R): > 79600 nM
inhibition (dopamine D2 receptor [1]; […], arylpiperazine-arylurea compounds at 100 nM, [3H]-sulpiride, HEK-293 cells (Table 2), read-out: D2 Receptor Displacement (%)): 10.2 ± 6.7%
selectivity ratio (dopamine D3 receptor [4]): > 10000
activation of signaling pathways downstream of D4 receptors (printed as D3 receptors) [6]: didn't activate
activation of signaling pathways downstream of D2 receptors (dopamine D2 receptor [7]): didn't activate
Ki (dopamine D3 receptor [8]): 7.4 nM
solubility ([9]; 3.3 mg/mL): > 3300 µg/mL
solubility ([9]; 5 mg/mL): < 5000 µg/mL
solubility ([9]; 10 mg/mL): < 5000 µg/mL
Structure (SMILES): O=C(NCCCCN1CCN(c2ccc(Cl)cc2)CC1)Nc1cnc2ccccc2c1 [Compound 8i, 1-(4-(4-(4-chlorophenyl)piperazin-1-yl)butyl)-3-(quinolin-3-yl)urea]
frequency of falling [2]: reduced the frequency of falling
latency to fall [2]: increased the latency to fall
Solubility in water ([3]; 1 mg/mL): + (+ indicates that the compound was completely dissolved)
Solubility in water ([3]; 3 mg/mL): − (− indicates that the compound was un-dissolved or not completely dissolved)
Solubility in water ([3]; 6 mg/mL): − (− indicates that the compound was un-dissolved or not completely dissolved)
Solubility in water ([3]; 12 mg/mL): − (− indicates that the compound was un-dissolved or not completely dissolved)
activation of signaling pathways downstream of D3 receptors (dopamine D3 receptor [5]): activated signaling pathways downstream of D3 receptors
